# Experiments:
# [1] = system: ASPC-1 tumor-bearing mice; assay: Biodistribution of radionuclide labeled complexes in ASPC-1 tumor-bearing mice; assay type: in vivo, BALB/c nude mice
# Procedure, shortened: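 BALB/c nude mice bore subcutaneous flank xenografts from ~4×10^6 NTSR-1-expressing cells, grown 2-4 weeks to ~0.05-0.50 g. Labeled compound, ~30-50 μCi (30-250 μCi/nmol specific activity) in 0.9% NaCl, was given by tail vein; organs were excised, weighed and γ-counted at various times for % ID and % ID/g.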
# [2] = system: pancreatic cancer patients; conditions: human study; cited from earlier work
compound,measurement,setting,value
"COc1cccc(OC)c1-c1cc(C(=O)NC2(C(=O)O)C3CC4CC(C3)CC2C4)nn1-c1ccc(C(=O)N(C)CCCN(C)CCCN(C)C(=O)CN2CCN(CC(=O)[O-])CCN(CC(=O)[O-])CCN(CC(=O)[O-])CC2)cc1C(C)C.[177Lu+3] (stereo not shown) [^177Lu-C-2, reference compound]",% ID/g (1 h) Blood,"[1]; Blood, 1 h",13.87 ± 0.17 % ID/g
same,% ID/g (4 h) Blood,"[1]; Blood, 4 h",4.46 ± 0.64 % ID/g
same,% ID/g (24 h) Blood,"[1]; Blood, 24 h",0.31 ± 0.1 % ID/g
same,% ID/g (72 h) Blood,"[1]; Blood, 72 h",0.09 ± 0.01 % ID/g
same,% ID/g (1 h) Femur,"[1]; Femur, 1 h",1.34 ± 0.23 % ID/g
same,% ID/g (4 h) Femur,"[1]; Femur, 4 h",0.89 ± 0.11 % ID/g
same,% ID/g (24 h) Femur,"[1]; Femur, 24 h",0.22 ± 0.13 % ID/g
same,% ID/g (72 h) Femur,"[1]; Femur, 72 h",0.12 ± 0.03 % ID/g
same,% ID/g (1 h) Heart,"[1]; Heart, 1 h",4.83 ± 1.1 % ID/g
same,% ID/g (4 h) Heart,"[1]; Heart, 4 h",1.72 ± 0.18 % ID/g
same,% ID/g (24 h) Heart,"[1]; Heart, 24 h",0.37 ± 0.07 % ID/g
same,% ID/g (72 h) Heart,"[1]; Heart, 72 h",0.16 ± 0.04 % ID/g
same,% ID/g (1 h) Intestine,"[1]; Intestine, 1 h",1.98 ± 0.63 % ID/g
same,% ID/g (4 h) Intestine,"[1]; Intestine, 4 h",1.62 ± 0.41 % ID/g
same,% ID/g (24 h) Intestine,"[1]; Intestine, 24 h",0.44 ± 0.11 % ID/g
same,% ID/g (72 h) Intestine,"[1]; Intestine, 72 h",0.15 ± 0.06 % ID/g
same,% ID/g (1 h) Kidney,"[1]; Kidney, 1 h",3.34 ± 1.53 % ID/g
same,% ID/g (4 h) Kidney,"[1]; Kidney, 4 h",2.6 ± 0.93 % ID/g
same,% ID/g (24 h) Kidney,"[1]; Kidney, 24 h",1.36 ± 0.42 % ID/g
same,% ID/g (72 h) Kidney,"[1]; Kidney, 72 h",0.46 ± 0.08 % ID/g
same,% ID/g (1 h) Liver,"[1]; Liver, 1 h",2.01 ± 1.1 % ID/g
same,% ID/g (4 h) Liver,"[1]; Liver, 4 h",2.51 ± 0.12 % ID/g
same,% ID/g (24 h) Liver,"[1]; Liver, 24 h",1.53 ± 0.93 % ID/g
same,% ID/g (72 h) Liver,"[1]; Liver, 72 h",0.99 ± 0.37 % ID/g
same,% ID/g (1 h) Lung,"[1]; Lung, 1 h",3.67 ± 2.25 % ID/g
same,% ID/g (4 h) Lung,"[1]; Lung, 4 h",1.92 ± 0.99 % ID/g
same,% ID/g (24 h) Lung,"[1]; Lung, 24 h",0.69 ± 0.14 % ID/g
same,% ID/g (72 h) Lung,"[1]; Lung, 72 h",0.23 ± 0.06 % ID/g
same,% ID/g (1 h) Muscle,"[1]; Muscle, 1 h",0.93 ± 0.21 % ID/g
same,% ID/g (4 h) Muscle,"[1]; Muscle, 4 h",0.31 ± 0.1 % ID/g
same,% ID/g (24 h) Muscle,"[1]; Muscle, 24 h",0.1 ± 0.05 % ID/g
same,% ID/g (72 h) Muscle,"[1]; Muscle, 72 h",0.06 ± 0.03 % ID/g
same,% ID/g (1 h) Pancreas,"[1]; Pancreas, 1 h",0.8 ± 0.47 % ID/g
same,% ID/g (4 h) Pancreas,"[1]; Pancreas, 4 h",0.27 ± 0.06 % ID/g
same,% ID/g (24 h) Pancreas,"[1]; Pancreas, 24 h",0.1 ± 0.02 % ID/g
same,% ID/g (72 h) Pancreas,"[1]; Pancreas, 72 h",0.07 ± 0.03 % ID/g
same,% ID/g (1 h) Spleen,"[1]; Spleen, 1 h",1.25 ± 0.78 % ID/g
same,% ID/g (4 h) Spleen,"[1]; Spleen, 4 h",0.49 ± 0.04 % ID/g
same,% ID/g (24 h) Spleen,"[1]; Spleen, 24 h",0.35 ± 0.3 % ID/g
same,% ID/g (72 h) Spleen,"[1]; Spleen, 72 h",0.34 ± 0.1 % ID/g
same,% ID/g (1 h) Stomach,"[1]; Stomach, 1 h",1.35 ± 0.42 % ID/g
same,% ID/g (4 h) Stomach,"[1]; Stomach, 4 h",0.6 ± 0.23 % ID/g
same,% ID/g (24 h) Stomach,"[1]; Stomach, 24 h",0.15 ± 0.04 % ID/g
same,% ID/g (72 h) Stomach,"[1]; Stomach, 72 h",0.05 ± 0 % ID/g
same,% ID/g (1 h) Tumor,"[1]; Tumor, 1 h",10.34 ± 5.66 % ID/g
same,% ID/g (4 h) Tumor,"[1]; Tumor, 4 h",16.13 ± 4.47 % ID/g
same,% ID/g (24 h) Tumor,"[1]; Tumor, 24 h",12.6 ± 3.52 % ID/g
same,% ID/g (72 h) Tumor,"[1]; Tumor, 72 h",8.03 ± 5.76 % ID/g
same,dose limiting organ,[2],kidney
